# Measurements reported in patent publication US20260176282A1, “BICYCLIC COMPOUNDS AS CDK INHIBITORS” (BEONE MEDICINES I GMBH, priority 2023, published 2026).
# Like-named read-outs stand apart in the source and are kept apart here.
# Tests used:
# [1] = test system: HEK-293 cells; assay: HEK-293 cell cytotoxicity detection (CellTiter-Glo); type: cell-based; details: incubation of 72 h, CellTiter-Glo luminescence
# Experimental: HEK-293 cells were treated with compounds diluted in 0.4% DMSO, dilution was done according to the following protocol: (1) making 250× stock solution in DMSO from 10 mM by 4-fold dilution, total 8 doses were included; (2) making 2 solution in cell culture medium by transferring 1 μl 250× stock solution into 124 μl medium; (3) adding 50 μl of 2× solution to cells for incubation of 72 h.
# 25 μl of the CellTiter-Glo® Reagent [(PromegaCat #G9242)] was added to each well in the 96-well plate. The contents were mixed for 2 minutes on an orbital shaker to induce cell lysis. The plate was then allowed to incubate at room temperature for 10 minutes to stabilize luminescent signal. Luminescence was recorded on BMG PheraStar with luminescence protocol.
# The IC50 value of a compound can be obtained by fitting the following equation: […]
# Wherein, X and Y are known values, and IC50, Hillslope, Top and Bottom are the parameters obtained by fitting with software. Y is the inhibition percentage (calculated from the equation), X is the concentration of the compound; IC50 is the concentration of the compound when the 50% inhibition is reached. The smaller the IC50 value is, the stronger the inhibitory ability of the compound is. Vice versa, the higher the IC50 value is, the weaker the ability the inhibitory ability of the compound is; Hillslope represents the slope of the fitted curve, generally around 1*; Bottom represents the minimum value of the curve obtained by data fitting, which is generally 0%±20%; Top represents the maximum value of the curve obtained by data fitting, which is generally 100%±20%. The experimental data were fitted by calculating and analyzing with Dotmatics data analysis software.
# [2] = target: CDK2/Cyclin E1 (Homo sapiens, UniProt P24941); assay: CDK2/Cyclin E1 TR-FRET biochemical assay (1 mM ATP); details: 90 minutes reaction
# Experimental: (§1) Compounds disclosed herein were tested for inhibition of CDK2/Cyclin E1 or CDK1/Cyclin B1 kinase in an assay based on the time-resolved fluorescence-resonance energy transfer (TR-FRET) methodology. The assay was carried out in 384-well low volume black plates in a reaction mixture containing CDK2/Cyclin E1 or CDK1/Cyclin B1, 1 mM ATP for CDK2/Cyclin E1 and CDK1/Cyclin B1, 0.15 μM Rb (Ser780)-biotin substrate and 0-10 μM compound in buffer containing 50 mM HEPES pH7.0, 0.02% NaN3, 0.01% BSA, 0.1 mM Orthovanadate, 50 mM MgCl2, 1 mM DTT and 0.005% Tween-20. The kinase was incubated with compound for 60 minutes at room temperature and the reaction was initiated by the addition of ATP and Rb (Ser780)-biotin substrate. After reaction at room temperature for 90 minutes, an equal volume of stop/detection solution was added according to the manufacture's instruction (Cisbio Bioassays). The stop/detection solution contained Streptavidin-XL665 and Anti-pRb (Ser780) mAb-Eu Cryptate in Detection buffer (Cisbio Bioassays). Plates were incubated at room temperature for 60 minutes, and the TR-FRET signals (ex337 nm, em665 nm/620 nm) were recorded on a PHERAstar FSX plate reader (BMG Labtech). The inhibition percentage of CDK2/Cyclin E1 or CDK1/Cyclin B1 kinase activity in presence of increasing concentrations of compounds was calculated based on the ratio of fluorescence at 665 nm to that at 620 nm. The IC50 for each compound was derived from fitting the data to the four-parameter logistic equation by Dotmatics.
# [3] = target: CDK1/Cyclin B1 (Homo sapiens, UniProt P06493); assay: CDK1/Cyclin B1 TR-FRET biochemical assay (1 mM ATP); details: 90 minutes reaction
# Sequence of CDK1/Cyclin B1 (P06493 whole entry): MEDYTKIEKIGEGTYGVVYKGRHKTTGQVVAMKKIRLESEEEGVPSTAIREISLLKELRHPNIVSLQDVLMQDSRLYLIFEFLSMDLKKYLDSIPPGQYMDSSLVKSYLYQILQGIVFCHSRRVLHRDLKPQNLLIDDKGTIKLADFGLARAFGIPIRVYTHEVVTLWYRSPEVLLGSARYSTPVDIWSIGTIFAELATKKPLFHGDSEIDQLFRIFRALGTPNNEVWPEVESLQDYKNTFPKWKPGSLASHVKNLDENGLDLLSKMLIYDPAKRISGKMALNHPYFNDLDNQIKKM
# Sequence of CDK1/Cyclin B1 (P14635 whole entry partner): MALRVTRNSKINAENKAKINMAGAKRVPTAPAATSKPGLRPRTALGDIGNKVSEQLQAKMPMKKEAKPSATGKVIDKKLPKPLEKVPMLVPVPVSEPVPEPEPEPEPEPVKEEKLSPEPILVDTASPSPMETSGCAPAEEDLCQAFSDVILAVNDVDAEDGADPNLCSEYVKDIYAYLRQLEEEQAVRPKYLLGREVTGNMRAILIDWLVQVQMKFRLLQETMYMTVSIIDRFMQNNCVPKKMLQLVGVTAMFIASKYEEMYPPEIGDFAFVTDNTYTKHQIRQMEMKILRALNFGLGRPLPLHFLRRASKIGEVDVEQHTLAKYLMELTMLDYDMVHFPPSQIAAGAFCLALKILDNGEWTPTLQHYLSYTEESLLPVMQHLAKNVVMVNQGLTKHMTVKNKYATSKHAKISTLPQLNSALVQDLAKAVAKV
# Experimental: as §1
IC50 [2],IC50 [3],SMILES,"IC50 ([1]; Homo sapiens, HEK293, 72 h)",IC50 ([1]; read-out: HEK293 IC50)
1.2 nM,609 nM,"O=C(NC1CCC1)O[C@H]1CC[C@@H](c2cc(Nc3ccc4c(c3F)CS(=O)(=O)C4)n[nH]2)C1 (relative stereo) [Example 12, cis-3-(3-((4-fluoro-2,2-dioxido-1,3-dihydrobenzo[c]thiophen-5-yl)amino)-1H-pyrazol-5-yl)cyclopentyl cyclobutylcarbamate]",499 nM,
0.7 nM,155 nM,"O=C(NCCC(F)(F)F)O[C@H]1CC[C@@H](c2cc(Nc3ccc4c(c3F)CS(=O)(=O)C4)n[nH]2)C1 (relative stereo) [Example 16, cis-3-(3-((4-fluoro-2,2-dioxido-1,3-dihydrobenzo[c]thiophen-5-yl)amino)-1H-pyrazol-5-yl)cyclopentyl (3,3,3-trifluoropropyl)carbamate]",687 nM,
0.8 nM,181 nM,"CC(C)(CO)NC(=O)O[C@H]1CC[C@@H](c2cc(Nc3ccc4c(c3F)CS(=O)(=O)C4)n[nH]2)C1 (relative stereo) [Example 19, cis-3-(3-((4-fluoro-2,2-dioxido-1,3-dihydrobenzo[c]thiophen-5-yl)amino)-1H-pyrazol-5-yl)cyclopentyl (1-hydroxy-2-methylpropan-2-yl)carbamate]",201 nM,
31 nM,4830 nM,"O=C(NC1COC1)O[C@H]1CC[C@@H](c2cc(Nc3ccc4c(c3F)CS(=O)(=O)C4)n[nH]2)C1 (relative stereo) [Example 20, cis-3-(3-((4-fluoro-2,2-dioxido-1,3-dihydrobenzo[c]thiophen-5-yl)amino)-1H-pyrazol-5-yl)cyclopentyl oxetan-3-ylcarbamate]",> 10000 nM,
24 nM,2600 nM,"CN(C(=O)O[C@H]1CC[C@@H](c2cc(Nc3ccc4c(c3F)CS(=O)(=O)C4)n[nH]2)C1)C1CCOC1 (relative stereo) [Example 21, cis-3-(3-((4-fluoro-2,2-dioxido-1,3-dihydrobenzo[c]thiophen-5-yl)amino)-1H-pyrazol-5-yl)cyclopentyl methyl(tetrahydrofuran-3-yl)carbamate]",> 10000 nM,
4.5 nM,1050 nM,"O=C(NCC(F)(F)F)O[C@H]1CC[C@@H](c2cc(Nc3ccc4c(c3F)CS(=O)(=O)C4)n[nH]2)C1 (relative stereo) [Example 22, cis-3-(3-((4-fluoro-2,2-dioxido-1,3-dihydrobenzo[c]thiophen-5-yl)amino)-1H-pyrazol-5-yl)cyclopentyl (2,2,2-trifluoroethyl)carbamate]",> 10000 nM,
0.9 nM,410 nM,"O=C(NC1CCCC1)O[C@H]1CC[C@@H](c2cc(Nc3ccc4c(c3F)CS(=O)(=O)C4)n[nH]2)C1 (relative stereo) [Example 23, cis-3-(3-((4-fluoro-2,2-dioxido-1,3-dihydrobenzo[c]thiophen-5-yl)amino)-1H-pyrazol-5-yl)cyclopentyl cyclopentylcarbamate]",2860 nM,
33 nM,7450 nM,"CC(C)NC(=O)O[C@H]1CC[C@@H](c2cc(Nc3cc4c(cc3F)CS(=O)(=O)C4)n[nH]2)C1 (relative stereo) [Example 27, cis-3-(3-((6-fluoro-2,2-dioxido-1,3-dihydrobenzo[c]thiophen-5-yl)amino)-1H-pyrazol-5-yl)cyclopentyl isopropylcarbamate]",> 10000 nM,
9.4 nM,2900 nM,"Cc1cc2c(cc1Nc1cc([C@@H]3CC[C@H](OC(=O)NC(C)C)C3)[nH]n1)CS(=O)(=O)C2 (relative stereo) [Example 28, cis-3-(3-((6-methyl-2,2-dioxido-1,3-dihydrobenzo[c]thiophen-5-yl)amino)-1H-pyrazol-5-yl)cyclopentyl isopropylcarbamate]",> 10000 nM,
576 nM,> 10000 nM,"CC(C)NC(=O)O[C@H]1CC[C@@H](c2cc(Nc3cc4c(cc3F)C[S+]([O-])C4)n[nH]2)C1 (relative stereo) [Example 29, cis-3-(3-((6-fluoro-2-oxido-1,3-dihydrobenzo[c]thiophen-5-yl)amino)-1H-pyrazol-5-yl)cyclopentyl isopropylcarbamate]",> 10000 nM,
383 nM,> 10000 nM,"CC(C)NC(=O)O[C@H]1CC[C@@H](c2cc(Nc3cc4c(cc3F)CSC4)n[nH]2)C1 (relative stereo) [Example 30, cis-3-(3-((6-fluoro-1,3-dihydrobenzo[c]thiophen-5-yl)amino)-1H-pyrazol-5-yl)cyclopentyl isopropylcarbamate]",> 10000 nM,
5.3 nM,3360 nM,"CC(C)NC(=O)O[C@H]1CC[C@@H](c2cc(Nc3ccc4c(c3F)C[S+]([O-])C4)n[nH]2)C1 (relative stereo) [Example 31, cis-3-(3-((4-fluoro-2-oxido-1,3-dihydrobenzo[c]thiophen-5-yl)amino)-1H-pyrazol-5-yl)cyclopentyl isopropylcarbamate]",1570 nM,
4.2 nM,493 nM,"CCN(C)C(=O)O[C@H]1CC[C@@H](c2cc(Nc3ccc4c(c3F)CS(=O)(=O)C4)n[nH]2)C1 (relative stereo) [Example 32, cis-3-(3-((4-fluoro-2,2-dioxido-1,3-dihydrobenzo[c]thiophen-5-yl)amino)-1H-pyrazol-5-yl)cyclopentyl ethyl(methyl)carbamate]",> 10000 nM,
22 nM,4880 nM,"CC(C)NC(=O)O[C@H]1CC[C@@H](c2cc(Nc3ccc4c(c3F)CSC4)n[nH]2)C1 (relative stereo) [Example 33, cis-3-(3-((4-fluoro-1,3-dihydrobenzo[c]thiophen-5-yl)amino)-1H-pyrazol-5-yl)cyclopentyl isopropylcarbamate]",> 10000 nM,
0.4 nM,169 nM,"Cc1c(Nc2cc([C@@H]3CC[C@H](OC(=O)NC(C)C)C3)[nH]n2)ccc2c1CS(=O)(=O)C2 (relative stereo) [Example 35, cis-3-(3-((4-methyl-2,2-dioxido-1,3-dihydrobenzo[c]thiophen-5-yl)amino)-1H-pyrazol-5-yl)cyclopentyl isopropylcarbamate]",739 nM,
0.5 nM,493 nM,"CC1(NC(=O)OC2CCC(c3cc(Nc4ccc5c(c4F)CS(=O)(=O)C5)n[nH]3)C2)CCOC1 (single isomer, unassigned) [Example 13a, cis-3-(3-((4-fluoro-2,2-dioxido-1,3-dihydrobenzo[c]thiophen-5-yl)amino)-1H-pyrazol-5-yl)cyclopentyl (3-methyltetrahydrofuran-3-yl)carbamate]",,2150 nM
0.6 nM,353 nM,"CC1(NC(=O)OC2CCC(c3cc(Nc4ccc5c(c4F)CS(=O)(=O)C5)n[nH]3)C2)CCOC1 (single isomer, unassigned) [Example 13b, cis-3-(3-((4-fluoro-2,2-dioxido-1,3-dihydrobenzo[c]thiophen-5-yl)amino)-1H-pyrazol-5-yl)cyclopentyl (3-methyltetrahydrofuran-3-yl)carbamate]",,559 nM
